Measured values published in patent publication US20210244721A1, “SMALL MOLECULE ENTEROVIRUS INHIBITORS AND USES THEREOF” (priority 2020, published 2021).
Where two headings read alike, the source gives them in different places.

Columns and labels:
[1] = Cytotoxicity in Vero C1008 cells; settings: African green monkey
CVB3 = assay: CPE assay, CVB3 in Vero C1008 cells; assay type: cell-based, coxsackievirus B3 (CVB3); settings: Enterovirus B
EV-A71 Tainan/4643/98 = assay: CPE assay, EV-A71 Tainan in RD cells; assay type: cell-based; settings: Enterovirus A
CVB3 2C protein = target: T1, CVB3 2C protein (Coxsackievirus B3, UniProt P03313); assay: Thermal shift assay (differential scanning fluorimetry); assay type: binding
T1 construct: CVB3 Nancy 2C (amino acids 37 to 329) protein; His tag with TEV site (inferred from the pET28a(+)-TEV vector and Ni-NTA purification); made in house; host or cells: E. coli Rosetta 2(DE3)
T1 sequence (P03313 1137-1429): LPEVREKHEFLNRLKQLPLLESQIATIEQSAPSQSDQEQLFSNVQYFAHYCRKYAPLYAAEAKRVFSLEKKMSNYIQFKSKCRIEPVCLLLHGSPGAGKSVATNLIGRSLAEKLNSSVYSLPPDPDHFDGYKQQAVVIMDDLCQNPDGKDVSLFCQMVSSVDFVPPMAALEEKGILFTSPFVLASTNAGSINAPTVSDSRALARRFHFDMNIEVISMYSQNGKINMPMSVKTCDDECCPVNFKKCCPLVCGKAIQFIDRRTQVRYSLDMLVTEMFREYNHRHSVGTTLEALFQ

in vitro = settings: human
[2] = test system: EV-D68 US/KY/14-18953 virus; assay: CPE assay, EV-D68 US/KY/14-18953 in RD cells; assay type: cell-based, Enterovirus D68 (EV-D68)
[3] = test system: EV-D68 viral capsid protein VP1; assay: VP1 expression by immunofluorescence imaging and western blot; assay type: cell-based, Enterovirus D68 (EV-D68); settings: for VP1 protein expression: 1 μM, US/KY/14-18953 MOI=1, 9 hpi, immunofluorescence imaging and western blot
Description: The EV-D68 2C protein is a highly conserved viral protein that plays multiple functions in genome replication. It has been implicated in RNA replication, membrane rearrangements, encapsidation, and uncoating (see, Van der Linden, L.; et al., Viruses 2015, 7, 4529-4562). Inhibition of viral 2C protein is expected to inhibit viral RNA and protein synthesis.
Total proteins were extracted at 9 hpi using RAPI lysis buffer [50 mM Tris (pH 8.0), 1% NP-40, 0.1% SDS, 150 mM NaCl, 0.5% Sodium deoxycholate, 5 mM EDTA, 10 mM NaF, 10 mM NaPPi, […] 1 mM PMSF]. Equal amount of extracted total proteins were separated by electrophoresis and transferred to a polyvinylidene difluoride (PVDF) membrane. Viral protein VP1 or host GAPDH was recognized by rabbit anti-VP1 (GeneTex: GTX132313; 1:3,000 dilution) or mouse anti-GAPDH antibody (EMD Millipore: MAB374; 1:3,000 dilution), respectively, followed by detection using Horse radish peroxidase (HRP)-conjugated secondary antibody (ThermoFisher Scientific: 32430 or 656120; 1:3,000 dilutions) and Supersignal West Femto substrate (ThermoFisher Scientific).
At 9 hpi, infected cells were fixed with 4% formaldehyde for 10 min followed by permeabilization with 0.2% Triton X-100 for another 10 min. After blocking with 10% bovine serum, cells were stained with rabbit anti-VP1 antibody (GeneTex: GTX132313) and followed by staining with anti-rabbit secondary antibody conjugated to Alexa-488 (ThermoFisher Scientific). Nucleus were stained with 300 nM DAPI (ThermoFisher Scientific) after secondary antibodies incubation. Fluorescent images were acquired using a Leica SP5-II spectral Confocal Microscope (Leica).

[4] = test system: influenza A virus A/California/07/2009 (H1N1); assay: Plaque assay, influenza A virus; assay type: cell-based; settings: 10 μM
Description: (§1) Plaque assay was performed using the condition described previously (see, Wang, Y.; et al., J. Med. Chem. 2018, 61, 1074-1085). […] Oseltamivir carboxylate was included as a positive control and was tested at 200 nM.

[5] = test system: influenza B virus B/Brisbane/60/2008 (Victoria); assay: Plaque assay, influenza B virus; assay type: cell-based; settings: 10 μM
Description: as §1

sodium channels = assay: Sodium flux assay in DRG neurons; settings: rat DRG neurons, veratridine
Description: In this assay, rat dorsal root ganglia (DRG) neurons were incubated with various concentrations of testing compounds. Sodium channels were then activated by the sodium channel agonist veratridine. The resulting sodium flux was measured indirectly by quantifying the sodium channel triggered calcium flux, which was measured by a calcium-specific fluorescence dye (FIG. 4).
Dorsal root ganglion neurons were prepared as previously described^27 and were loaded for 30 minutes at 3TC with 3 μM Fura-2AM (Cat #F1221, Thermo Fisher, stock solution prepared at 1 mM in DMSO, 0.02% pluronic acid, Cat #P-3000MP, Life technologies) to follow changes in intracellular calcium ([Ca^2+]c) in a standard bath solution containing 139 mM NaCl, 3 mM KCl, 0.8 mM MgCl2, 1.8 mM CaCl2, 10 mM Na HEPES, pH 7.4, 5 mM glucose exactly as previously described^28 Fluorescence imaging was performed with an inverted microscope, NikonEclipseTi-U (Nikon Instruments Inc., Melville, N.Y.), using objective Nikon Fluor 4X and a Photometrics cooled CCD camera Cool SNAP ES^2 (Roper Scientific, Tucson, Ariz.) controlled by Nis Elements software (version 4.20, Nikon Instruments). […] Fluorescence was recorded through a 505-nm dichroic mirror at 535±25 nm. […] The changes in [Ca^2+]c were monitored by following a ratio of F340/F380, calculated after subtracting the background from both channels. […]

RD cells = settings: human, 3 days
A549 = assay: Cytotoxicity in A549 cells
Description: (§2) The cytotoxicity of each compound was determined using the neutral red cell viability assay. The assay was performed under similar conditions (incubation temperature, time, and media) as the CPE, but excluded viral infection. Data acquisition and analysis (CC50) was performed similarly to the antiviral CPE assay, and all values are from triplicate experiments.

HeLa = assay: Cytotoxicity in HeLa cells
Description: as §2

SH-SY5Y cells = assay: Cytotoxicity in SH-SY5Y cells
Description: as §2

A172 cells = assay: Cytotoxicity in A172 cells
Description: as §2

[6] = Mouse microsomal stability; assay type: in vitro ADME; settings: mouse liver microsomes
Description: Test compounds were incubated at 37° C. with liver microsomes (mouse or human) (Xenotech) at 1 μM drug concentration in the presence of a NADPH regenerating system at 0.5 mg/ml microsomal protein. Testosterone (3A4 substrate), Propafenone (2D6), and Diclofenac (2C9) were included as positive controls. Compounds were incubated with microsomes in the presence of a NADPH regenerating system (Sigma, Cat. No. N0505, Lot SLBH3107V). Aliquots at 0, 5, 10, 20, 30 and 60 minutes post incubation were collected and immediately mixed with cold acetonitrile containing internal standard (IS). Compounds incubated with microsomes without NADPH regenerating system for 60 minutes were also included. All the samples were analyzed by LC/MS/MS; disappearance of test compound were assessed based on peak area ratios of analyte/IS. Following equations were applied to calculate the microsome clearance: […]

EV-D68 US/MO/14-18947 = assay: CPE assay, EV-D68 US/MO/14-18947 in RD cells; settings: EV-D68 US/MO/14-18947, RD cells
EV-A71 US/AK/16-19516 = assay: CPE assay, EV-A71 US/AK in RD cells; assay type: cell-based; settings: Enterovirus A, EVA71
[7] = Enterovirus D, EVD68, RD, against five different strains of EV-D68 viruses (summary), read-out: EC50
[8] = EV-D68 US/KY/14-18953, RD cells, CPE assay, read-out: EC50
[9] = CVB3, Vero C1008 cells, read-out: EC50
[10] = EVA71, EV-A71 Tainan, RD cells, read-out: EC50

CNCCC(Oc1ccc(C(F)(F)F)cc1)c1ccccc1 (stereo not drawn)
CC50 at 3 days [1]: 11 µM

COc1ccc(CC(C)NCC(O)c2ccc(O)c(NC=O)c2)cc1 (stereo not drawn)
EC50 (CVB3; CVB3, Vero C1008): 9.9 µM
CC50 at 3 days [1]: > 300 µM
EC50 (EV-A71 Tainan/4643/98; EVA71, RD): > 100 µM

CNCCNC(=O)c1cc(-c2ccc(F)cc2)nc2ccccc12 [Compound 6aw, 2-(4 fluorophenyl)-N-[2-(methylamino)ethyl]quinoline-4-carboxamide]
thermal stability of CVB3 2C (CVB3 2C protein; three concentrations (10, 30 or 100 μM)): increased the thermal stability of CVB3 2C in a concentration dependent manner

O=C(NC1C2CNCC21)c1cc(-c2cccs2)nc2ccccc12 (stereo not drawn) [Compound 6bk, N-{3-azabicyclo[3.1.0]hexan-6-yl}b-2-(thiophen-2-yl)quinoline-4-carboxamide]
CC50 at 3 days (in vitro): 34.5 µM
SI = selectivity index (CC50/EC50) ([2]; EV-D68 US/KY/14-18953, RD cells): SI50 = 5.4
EC50 ([2]; Enterovirus D, EVD68, RD, EV-D68 US/KY/14-18953, RD cells, CPE assay, read-out: EC50): 6.4 µM

CN(C)CCNC(=O)c1cc(-c2ccccc2)nc2ccccc12 [Compound 10a, N-[2-(dimethylamino)ethyl]-2-phenylquinoline-4-carboxamide]
VP1 protein expression ([3]; RD cells): completely blocked
inhibition in plaque assay [4]: no inhibition
inhibition in plaque assay [5]: no inhibition
EC50 ([2]; Enterovirus D, EVD68, RD, Table 6, EV-D68 US/KY/14-18953, RD cells): 0.4 ± 0.2 µM
EC50 [2, 7]: < 1 µM
inhibition of sodium current conductance (sodium channels; 2 μM to 50 μM): minimal to no effect

O=C(NC1CN2CCC1CC2)c1cc(-c2ccccc2)nc2ccccc12 (stereo not drawn) [Compound 10c, N-{1-azabicyclo[2.2.2]octan-3-yl}-2-phenylquinoline-4-carboxamide]
CC50 (RD cells): 46.5 ± 14.7 µM

CN(C)CCNC(=O)c1cc(-c2cccs2)nc2ccccc12 [Compound 12a, N-[2-(dimethylamino)ethyl]-2-(thiophen-2-yl)quinoline-4-carboxamide]
VP1 protein expression ([3]; RD cells): completely blocked
inhibition in plaque assay [4]: no inhibition
inhibition in plaque assay [5]: no inhibition
EC50 ([2]; EV-D68 US/KY/14-18953, RD cells, CPE assay, listed as 6bf): 0.04 µM
EC50 ([2]; Enterovirus D, EVD68, RD, against five different strains of EV-D68 viruses (summary)): < 1 µM

O=C(NCCN1CCCC1)c1cc(-c2cccs2)nc2ccccc12 [Compound 12c, N-[2-(pyrrolidin-1-yl)ethyl]-2-(thiophen-2-yl)quinoline-4-carboxamide]
VP1 protein expression ([3]; RD cells): completely blocked
inhibition in plaque assay [4]: no inhibition
inhibition in plaque assay [5]: no inhibition
EC50 [2, 7]: < 1 µM

CCCCOc1cc(C(=O)NCCN(CC)CC)c2ccccc2n1 [dibucaine, reference compound]
VP1 protein expression ([3]; RD cells): no effect
fluorescent signal of VP1 (immunofluorescence) ([3]; 3 μM, 9 hpi, compared to DMSO control): significantly reduced
VP1 expression (western blot) ([3]; 3 μM, RD cells, 9 hpi): nearly completely inhibited
inhibition in plaque assay [4]: no inhibition
inhibition in plaque assay [5]: no inhibition
inhibition of sodium current conductance (sodium channels; 20 μM and 50 μM): potently inhibited

Cc1ccc2c(c1)c1c3n2CCNC3CCC1 (stereo not drawn) [drawing 10]
CC50 (RD cells): 19 ± 1.6 µM

CCCCOc1cc(C(=O)NCCN(CC)CC)c2ccccc2n1 [drawing 127]
CC50 (A549): 37.5 µM
CC50 (HeLa): 36 µM

CN(C)CCNC(=O)c1cc(-c2ccccc2)nc2ccccc12 [drawing 128]
CC50 (A549): 121 µM
CC50 (HeLa): 68.7 µM
EC50 [2, 8]: 0.4 µM

CN(C)CCNC(=O)c1cc(-c2cccs2)nc2ccccc12 [drawing 129]
CC50 (A549): 98.8 µM
CC50 (HeLa): 51.2 µM
EC50 ([2]; EV-D68 US/KY/14-18953, RD cells, CPE assay): 0.04 µM

CCCCOc1cc(C(=O)NCCN(CC)CC)c2ccccc2n1 [drawing 131]
CC50 (SH-SY5Y cells): > 30 µM
CC50 (A172 cells): > 30 µM

CN(C)CCNC(=O)c1cc(-c2ccccc2)nc2ccccc12 [drawing 132]
CC50 (SH-SY5Y cells): > 300 µM
CC50 (A172 cells): 88.4 µM

CN(C)CCNC(=O)c1cc(-c2cccs2)nc2ccccc12 [drawing 133]
CC50 (SH-SY5Y cells): 136 µM
CC50 (A172 cells): 73.8 µM

O=C(NCCN1CCCC1)c1cc(-c2cccs2)nc2ccccc12 [drawing 134]
CC50 (SH-SY5Y cells): 93.3 µM
CC50 (A172 cells): 65.4 µM

CN(C)CCNC(=O)c1cc(-c2ccccc2)nc2ccccc12 [drawing 181]
half-life at 1 μM ([6]; 1 μM, NADPH, read-out: Mouse microsomal stability T1/2): 22.4 min
CLint scaled at 1 μM ([6]; scaled to liver): 246 mL/min/kg
EC50 (EV-D68 US/MO/14-18947): 0.2 µM
EC50 (CVB3; [9]): 0.3 µM
EC50 (EV-A71 US/AK/16-19516): > 10 µM
EC50 (EV-A71 Tainan/4643/98; [10]): 4.2 µM

CN(C)CCNC(=O)c1cc(-c2ccc(F)cc2)nc2ccccc12 [drawing 185]
EC50 [2, 8]: 0.1 µM
EC50 (EV-D68 US/MO/14-18947; Enterovirus D, EVD68, RD): 0.05 µM
EC50 (CVB3; [9]): 0.06 µM
EC50 (EV-A71 US/AK/16-19516): 2.3 µM
EC50 (EV-A71 Tainan/4643/98; [10]): 2.2 µM

NCCNC(=O)c1cc(-c2ccc(F)cc2)nc2ccccc12 [drawing 187]
EC50 [2, 8]: 0.4 µM
EC50 (EV-D68 US/MO/14-18947; Enterovirus D, EVD68, RD): 0.3 µM
EC50 (CVB3; [9]): 0.4 µM
EC50 (EV-A71 US/AK/16-19516): 14 µM
EC50 (EV-A71 Tainan/4643/98; [10]): 9 µM

CNCCNC(=O)c1cc(-c2cccs2)nc2ccccc12 [drawing 192]
EC50 [2, 8]: 0.3 µM
EC50 (EV-D68 US/MO/14-18947; Enterovirus D, EVD68, RD): 0.2 µM
EC50 (CVB3; [9]): 0.3 µM
EC50 (EV-A71 US/AK/16-19516): 11.5 µM
EC50 (EV-A71 Tainan/4643/98; [10]): 8.4 µM

CCCCOc1cc(C(=O)NCCN(CC)CC)c2ccccc2n1 [drawing 195]
EC50 (CVB3; [9]): 1.3 µM
CC50 at 3 days ([1]; Vero C1008 cells): 64.4 µM
EC50 (EV-A71 Tainan/4643/98; [10]): > 10 µM

N=C(N)N [guanidine, reference compound]
Tm shift (CVB3 2C protein; 1 mM, CVB3 2C 4.5 μM): 1.77 °C
